According to ChEMBL document CHEMBL1201862, “PubChem BioAssay data set” (2004):
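Compound exposure: 48 hours, 5 concentrations, 96-well plates. GI50 is the concentration that inhibits growth by half.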 Calls of active or inactive are those of the source. Rule as the data show it: active = GI50 up to about 1.1 µM and inactive = higher.

Assays:
Experiment in all cases: DTP human tumour cell line panel, 48 h
HCC 2998 = tested on: HCC 2998
HCT-116 = tested on: HCT-116
Malme-3M = tested on: Malme-3M
OVCAR-4 = tested on: OVCAR-4
MOLT-4 = tested on: MOLT-4
SK-MEL-28 = tested on: SK-MEL-28
HT-29 = tested on: HT-29
CCRF-CEM = tested on: CCRF-CEM
UACC-62 = tested on: UACC-62
OVCAR-5 = tested on: OVCAR-5
NCI-H522 = tested on: NCI-H522
U-251 = tested on: U-251
SF-295 = tested on: SF-295
SNB-75 = tested on: SNB-75
SK-MEL-2 = tested on: SK-MEL-2
SW-620 = tested on: SW-620
COLO 205 = tested on: COLO 205
SK-MEL-5 = tested on: SK-MEL-5
SNB-19 = tested on: SNB-19
MCF7 = tested on: MCF7
A549 = tested on: A549
NCI-H460 = tested on: NCI-H460
NCI-H23 = tested on: NCI-H23
A498 = tested on: A498
EKVX = tested on: EKVX
UACC-257 = tested on: UACC-257
LOX IMVI = tested on: LOX IMVI
786-0 = tested on: 786-0
M14 = tested on: M14
TK-10 = tested on: TK-10
K562 = tested on: K562
SF-539 = tested on: SF-539
T47D = tested on: T47D
DU-145 = tested on: DU-145
MDA-MB-231 = tested on: MDA-MB-231
NCI-H226 = tested on: NCI-H226
NCI/ADR-RES = tested on: NCI/ADR-RES
ACHN = tested on: ACHN
UO-31 = tested on: UO-31
OVCAR-8 = tested on: OVCAR-8
RXF 393 = tested on: RXF 393
SK-OV-3 = tested on: SK-OV-3
MDA-N = tested on: MDA-N
SR = tested on: SR
CAKI-1 = tested on: CAKI-1
HCT-15 = tested on: HCT-15
OVCAR-3 = tested on: OVCAR-3
MDA-MB-435 = tested on: MDA-MB-435
SF-268 = tested on: SF-268
KM12 = tested on: KM12
HOP-62 = tested on: HOP-62
PC-3 = tested on: PC-3
SN12C = tested on: SN12C
IGROV-1 = tested on: IGROV-1
HL-60 = tested on: HL-60
RPMI-8226 = tested on: RPMI-8226
Hs-578T = tested on: Hs-578T
HOP-92 = tested on: HOP-92

Measured: GI50

O=C1/C(=N/c2ccccc2)Oc2cc(O)ccc21
> 100 µM: HCT-15
inactive: HCC 2998 > 100 µM | HCT-116 > 100 µM | Malme-3M > 100 µM | OVCAR-4 > 100 µM | MOLT-4 > 100 µM | SK-MEL-28 > 100 µM | HT-29 > 100 µM | CCRF-CEM > 100 µM | UACC-62 > 100 µM | OVCAR-5 > 100 µM | NCI-H522 > 100 µM | U-251 > 100 µM | SF-295 > 100 µM | SNB-75 > 100 µM | SK-MEL-2 > 100 µM | SW-620 > 100 µM | COLO 205 > 100 µM | SK-MEL-5 > 100 µM | SNB-19 > 100 µM | MCF7 56.4 µM | A549 > 100 µM | NCI-H460 > 100 µM | NCI-H23 > 100 µM | A498 > 100 µM | EKVX > 100 µM | UACC-257 > 100 µM | LOX IMVI > 100 µM | 786-0 > 100 µM | M14 > 100 µM | TK-10 > 100 µM | K562 > 100 µM | SF-539 > 100 µM | T47D > 100 µM | DU-145 > 100 µM | MDA-MB-231 > 100 µM | NCI-H226 > 100 µM | NCI/ADR-RES > 100 µM | ACHN > 100 µM | UO-31 > 100 µM | OVCAR-8 > 100 µM | RXF 393 > 100 µM | SK-OV-3 > 100 µM | MDA-N > 100 µM | SR > 100 µM | CAKI-1 > 100 µM | OVCAR-3 > 100 µM | MDA-MB-435 > 100 µM | SF-268 > 100 µM | KM12 > 100 µM | HOP-62 > 100 µM | PC-3 > 100 µM | SN12C > 100 µM | IGROV-1 > 100 µM

CN(C)CCNC(=O)Cn1cnc2cccc([N+](=O)[O-])c2c1=O
> 100 µM: HCT-15
inactive: HCC 2998 > 100 µM | HCT-116 > 100 µM | Malme-3M > 100 µM | OVCAR-4 > 100 µM | MOLT-4 > 100 µM | SK-MEL-28 > 100 µM | HT-29 > 100 µM | CCRF-CEM > 100 µM | UACC-62 > 100 µM | OVCAR-5 > 100 µM | NCI-H522 > 100 µM | U-251 > 100 µM | SF-295 > 100 µM | HL-60 > 100 µM | SK-MEL-2 > 100 µM | SW-620 > 100 µM | COLO 205 > 100 µM | RPMI-8226 > 100 µM | SK-MEL-5 > 100 µM | SNB-19 > 100 µM | MCF7 > 100 µM | A549 > 100 µM | NCI-H460 > 100 µM | NCI-H23 > 100 µM | A498 > 100 µM | EKVX > 100 µM | UACC-257 > 100 µM | LOX IMVI > 100 µM | 786-0 > 100 µM | M14 > 100 µM | TK-10 > 100 µM | K562 > 100 µM | SF-539 > 100 µM | T47D > 100 µM | DU-145 > 100 µM | NCI-H226 > 100 µM | NCI/ADR-RES > 100 µM | ACHN > 100 µM | UO-31 > 100 µM | RXF 393 > 100 µM | Hs-578T > 100 µM | SK-OV-3 > 100 µM | MDA-N > 100 µM | SR > 100 µM | CAKI-1 > 100 µM | OVCAR-3 > 100 µM | MDA-MB-435 > 100 µM | SF-268 > 100 µM | KM12 > 100 µM | HOP-62 > 100 µM | PC-3 > 100 µM | SN12C > 100 µM | IGROV-1 > 100 µM

C/C(=C\CCC1=CC(=O)OC1)CC[C@@H]1[C@H]2C(=O)CC(C)[C@@]3(C)CC[C@]1(C)[C@@]23C (some centres undefined)
> 10 µM: HCT-15
inactive: HCC 2998 > 10 µM | Malme-3M > 10 µM | MOLT-4 > 10 µM | SK-MEL-28 > 10 µM | HT-29 > 10 µM | CCRF-CEM > 10 µM | UACC-62 > 10 µM | SF-295 > 10 µM | HL-60 > 10 µM | SNB-75 > 10 µM | SW-620 > 10 µM | COLO 205 > 10 µM | RPMI-8226 > 10 µM | SK-MEL-5 > 10 µM | MCF7 > 10 µM | A549 > 10 µM | NCI-H23 > 10 µM | EKVX > 10 µM | UACC-257 > 10 µM | LOX IMVI > 10 µM | 786-0 > 10 µM | M14 > 10 µM | TK-10 > 10 µM | K562 > 10 µM | T47D > 10 µM | DU-145 > 10 µM | MDA-MB-231 > 10 µM | OVCAR-8 > 10 µM | RXF 393 > 10 µM | SK-OV-3 > 10 µM | MDA-N > 10 µM | SR > 10 µM | CAKI-1 > 10 µM | SF-268 > 10 µM | KM12 > 10 µM | HOP-62 > 10 µM | PC-3 > 10 µM | SN12C > 10 µM | IGROV-1 > 10 µM

CSC1=N/C(=C\c2cccs2)C(=O)N1CN1CCOCC1
38.1 µM: HCT-15
active: HL-60 0.0465 µM
inactive: HCT-116 31.3 µM | Malme-3M 44.7 µM | OVCAR-4 30.6 µM | MOLT-4 34.1 µM | SK-MEL-28 > 100 µM | HT-29 24.9 µM | CCRF-CEM 27.3 µM | UACC-62 42.4 µM | OVCAR-5 > 100 µM | NCI-H522 30.1 µM | U-251 85.5 µM | SF-295 > 100 µM | SNB-75 37.5 µM | SK-MEL-2 52.4 µM | SW-620 55 µM | COLO 205 45.5 µM | RPMI-8226 20 µM | SK-MEL-5 41.1 µM | SNB-19 45.6 µM | MCF7 32.2 µM | A549 > 100 µM | NCI-H23 > 100 µM | A498 64.9 µM | EKVX 40.6 µM | LOX IMVI 33.1 µM | 786-0 44.5 µM | M14 61.7 µM | TK-10 86.7 µM | K562 43.8 µM | DU-145 65.9 µM | MDA-MB-231 71.1 µM | NCI-H226 31.1 µM | NCI/ADR-RES 14.3 µM | ACHN 37.2 µM | UO-31 39.9 µM | OVCAR-8 28.8 µM | Hs-578T 51.6 µM | SK-OV-3 > 100 µM | MDA-N 59 µM | SR 17.4 µM | OVCAR-3 > 100 µM | MDA-MB-435 > 100 µM | SF-268 42.3 µM | KM12 57.7 µM | HOP-62 95.7 µM | PC-3 50.8 µM | HOP-92 4.82 µM | SN12C 5.2 µM | IGROV-1 41.5 µM

Cc1cc(N(CCCCl)CCCCl)ccc1/C=N/c1cccc(Cl)c1
inactive: HCT-116 25 µM | Malme-3M 8.79 µM | OVCAR-4 12.4 µM | MOLT-4 4.41 µM | SK-MEL-28 17.4 µM | HT-29 14.6 µM | OVCAR-5 1.2 µM | NCI-H522 17.5 µM | U-251 15.7 µM | SF-295 17.6 µM | HL-60 13 µM | SNB-75 12.1 µM | SK-MEL-2 16.4 µM | SW-620 12.3 µM | COLO 205 11.5 µM | SK-MEL-5 14.4 µM | SNB-19 15.3 µM | MCF7 16.2 µM | A549 12.3 µM | LOX IMVI 13.8 µM | 786-0 14.2 µM | M14 18.5 µM | TK-10 10.6 µM | K562 7.26 µM | DU-145 14.7 µM | MDA-MB-231 14 µM | NCI/ADR-RES 14.2 µM | ACHN 13.1 µM | UO-31 10.5 µM | OVCAR-8 11.9 µM | RXF 393 11.5 µM | Hs-578T 14.3 µM | SK-OV-3 19.1 µM | SR 11.8 µM | OVCAR-3 14.5 µM | MDA-MB-435 17.7 µM | SF-268 12.2 µM | KM12 13.5 µM | PC-3 12 µM | SN12C 16.7 µM | IGROV-1 13.2 µM
13.6 µM: HCT-15
active: HCC 2998 < 0.01 µM | UACC-62 0.74 µM | RPMI-8226 < 0.01 µM | NCI-H460 0.977 µM | NCI-H23 < 0.01 µM | UACC-257 0.428 µM | T47D 0.45 µM | NCI-H226 < 0.01 µM
